Source: ChEMBL document CHEMBL5325499, “Rational Design and Development of Selective BRD7 Bromodomain Inhibitors and Their Activity in Prostate Cancer” (J Med Chem, 2023)
Activity calls are given as the source filed them. The rule behind the calls is not given here.

Key:
[1] = molecular target: T1, Bromodomain-containing protein 7 (Homo sapiens, UniProt Q9NPI1); experiment: Displacement of FAM-labeled BI-FAMb from N-terminal His TEV-tagged human recombinant BRD7 bromodomain expressed in Escherichia coli BL21(DE3) by competitive fluorescence polarization assay
T1 sequence (Q9NPI1 whole entry): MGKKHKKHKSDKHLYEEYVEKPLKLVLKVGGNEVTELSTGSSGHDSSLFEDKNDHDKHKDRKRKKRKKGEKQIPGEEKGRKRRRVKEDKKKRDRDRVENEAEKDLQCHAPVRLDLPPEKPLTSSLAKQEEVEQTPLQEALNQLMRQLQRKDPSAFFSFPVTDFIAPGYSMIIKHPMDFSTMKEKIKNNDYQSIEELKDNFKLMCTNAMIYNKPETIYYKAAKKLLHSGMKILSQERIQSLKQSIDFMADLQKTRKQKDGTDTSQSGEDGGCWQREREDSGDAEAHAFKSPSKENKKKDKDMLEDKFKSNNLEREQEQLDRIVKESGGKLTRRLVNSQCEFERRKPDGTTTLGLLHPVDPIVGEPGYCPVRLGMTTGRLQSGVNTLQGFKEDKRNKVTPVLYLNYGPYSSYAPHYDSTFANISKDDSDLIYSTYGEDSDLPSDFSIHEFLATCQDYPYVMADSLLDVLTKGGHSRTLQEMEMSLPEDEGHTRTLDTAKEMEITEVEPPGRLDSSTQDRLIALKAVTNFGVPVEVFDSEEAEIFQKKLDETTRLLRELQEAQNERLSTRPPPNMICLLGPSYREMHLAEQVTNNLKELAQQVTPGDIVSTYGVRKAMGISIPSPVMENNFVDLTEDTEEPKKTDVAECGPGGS

[2] = molecular target: T2, Bromodomain-containing protein 9 (Homo sapiens, UniProt Q9H8M2); experiment: Displacement of FAM-labeled BI-FAMb from N-terminal His TEV-tagged human recombinant BRD9 bromodomain expressed in Escherichia coli BL21(DE3) by competitive fluorescence polarization assay
T2 sequence (Q9H8M2 whole entry): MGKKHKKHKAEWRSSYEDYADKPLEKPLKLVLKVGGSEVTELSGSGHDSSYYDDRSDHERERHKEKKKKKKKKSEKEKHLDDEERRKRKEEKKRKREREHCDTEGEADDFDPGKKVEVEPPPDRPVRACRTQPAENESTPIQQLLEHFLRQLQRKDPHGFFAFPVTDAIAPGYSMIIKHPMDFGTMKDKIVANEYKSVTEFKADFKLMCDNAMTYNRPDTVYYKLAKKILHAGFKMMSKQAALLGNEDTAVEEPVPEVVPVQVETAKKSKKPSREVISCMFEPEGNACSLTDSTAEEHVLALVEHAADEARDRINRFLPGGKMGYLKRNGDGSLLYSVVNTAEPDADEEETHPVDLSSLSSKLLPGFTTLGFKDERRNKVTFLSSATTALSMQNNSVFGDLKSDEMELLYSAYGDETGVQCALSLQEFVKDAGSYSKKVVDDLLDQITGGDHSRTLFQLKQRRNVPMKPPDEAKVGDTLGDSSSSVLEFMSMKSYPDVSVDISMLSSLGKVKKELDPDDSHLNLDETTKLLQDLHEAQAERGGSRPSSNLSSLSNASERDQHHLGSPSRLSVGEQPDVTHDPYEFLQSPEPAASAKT

Homo sapiens [3] = organism: Homo sapiens; experiment: Binding affinity to His TEV-tagged human recombinant BRPF1B expressed in Escherichia coli BL21(DE3) assessed as protein stabilization by measuring increase in melting temperature at 1 uM measured for 120 mins by differential scanning fluorimetry
[4] = molecular target: T2, Bromodomain-containing protein 9; experiment: Displacement of NanoBRET BRD Tracer-02 from Nanoluc-fused BRD9 bromodomain (unknown origin) expressed in HEK293T cells incubated for 2 hrs by NanoBRET assay; type: cell-based
[5] = molecular target: T1, Bromodomain-containing protein 7; experiment: Displacement of NanoBRET BRD Tracer-02 from Nanoluc-fused BRD7 bromodomain (unknown origin) expressed in HEK293T cells incubated for 2 hrs by NanoBRET assay; type: cell-based
[6] = molecular target: T3, Bromodomain-containing protein 9 (Homo sapiens) (UniProt Q9H8M2); experiment: Inhibition of BRD9 binding to chromatin in HEK293T cells at 10 uM incubated for 24 hrs by immunoblot analysis; type: cell-based
T3 sequence (whole entry): T2 sequence (Q9H8M2 whole entry)

CWR22R [7] = experiment: Antiproliferative activity against human 22Rv1 cells transfected with shBRD7-2 assessed as inhibition of cell growth at 5 uM measured after 4 days by CellTiter-Glo luminescent assay; type: functional; parameters: scale not given: the % may be the effect or the level left; details: time 4 day
[8] = Selectivity ratio of IC50 for antiproliferative activity against human AR-negative PC-3 cells to IC50 for antiproliferative activity against human AR-positive C-42 cells; type: functional
[9] = molecular target: T1, Bromodomain-containing protein 7; experiment: Binding affinity to human partial length BRD7 bromodomain (125 to 254 residues) expressed in mammalian expression system by BROMOscan KdELECT analysis
CWR22R [10] = experiment: Antiproliferative activity against human 22Rv1 cells transfected with shBRD7-2 assessed as inhibition of cell growth at 2.5 uM measured after 4 days by CellTiter-Glo luminescent assay; type: functional; parameters: scale not given: the % may be the effect or the level left; details: time 4 day
[11] = molecular target: T1, Bromodomain-containing protein 7; experiment: Binding affinity to N-terminal His TEV-tagged human recombinant BRD7 bromodomain expressed in Escherichia coli BL21(DE3) by microscale thermophoresis assay
[12] = Selectivity ratio of IC50 for antiproliferative activity against human AR-negative PC-3 cells to IC50 for antiproliferative activity against human AR-positive LNCaP cells; type: functional
CWR22R [13] = experiment: Antiproliferative activity against human 22Rv1 cells transfected with shBRD7-1 assessed as inhibition of cell growth at 5 uM measured after 4 days by CellTiter-Glo luminescent assay; type: functional; parameters: scale not given: the % may be the effect or the level left; details: time 4 day
PC-3 [14] = experiment: Antiproliferative activity against AR-negative human PC-3 cells assessed as inhibition of cell growth at 5 uM incubated for 4 days by CellTiter-Glo luminescent assay; type: functional, cell-based; details: time 4.0 day
[15] = molecular target: T4, Bromodomain-containing protein 7 (Homo sapiens) (UniProt Q9NPI1); experiment: Inhibition of human partial length BRD7 bromodomain (125 to 254 residues) expressed in mammalian expression system at 2 uM by BROMOscan analysis
T4 sequence (whole entry): T1 sequence (Q9NPI1 whole entry)

cells = details: Homo sapiens, HEK-293T, 2 h
Description: Displacement of NanoBRET BRD Tracer-02 from Nanoluc-fused BRPF1B bromodomain (unknown origin) expressed in HEK293T cells incubated for 2 hrs by NanoBRET assay

CWR22R [16] = experiment: Antiproliferative activity against human 22Rv1 cells transfected with empty vector assessed as inhibition of cell growth at 2.5 uM measured after 4 days by CellTiter-Glo luminescent assay; type: functional; parameters: scale not given: the % may be the effect or the level left; details: time 4 day
CWR22R [17] = experiment: Antiproliferative activity against human 22Rv1 cells transfected with shBRD7-1 assessed as inhibition of cell growth at 2.5 uM measured after 4 days by CellTiter-Glo luminescent assay; type: functional; parameters: scale not given: the % may be the effect or the level left; details: time 4 day
[18] = molecular target: T2, Bromodomain-containing protein 9; experiment: Binding affinity to human partial length BRD9 bromodomain (130 to 259 residues) expressed in bacterial expression system by BROMOscan KdELECT analysis
[19] = molecular target: T3, Bromodomain-containing protein 9 (Homo sapiens); experiment: Inhibition of human partial length BRD9 bromodomain (130 to 259 residues) expressed in bacterial expression system at 2 uM by BROMOscan analysis
CWR22R [20] = experiment: Antiproliferative activity against human 22Rv1 cells transfected with empty vector assessed as inhibition of cell growth at 5 uM measured after 4 days by CellTiter-Glo luminescent assay; type: functional; parameters: scale not given: the % may be the effect or the level left; details: time 4 day
[21] = molecular target: T3, Bromodomain-containing protein 9 (Homo sapiens); experiment: Binding affinity to N-terminal His TEV-tagged human recombinant BRD9 bromodomain expressed in Escherichia coli BL21(DE3) by microscale thermophoresis assay
PC-3 [22] = experiment: Antiproliferative activity against AR-negative human PC-3 cells assessed as inhibition of cell growth at 1 uM measured after 4 days by CellTiter-Glo luminescent assay; type: functional, cell-based; details: time 4.0 day
LNCaP = experiment: Antiproliferative activity against AR-positive human LNCaP cells assessed as inhibition of cell growth at 1 uM measured after 4 days by CellTiter-Glo luminescent assay; type: functional, cell-based; details: time 4.0 day
Homo sapiens [23] = organism: Homo sapiens; experiment: Binding affinity to His TEV-tagged human recombinant BRPF1B expressed in Escherichia coli BL21(DE3) assessed as protein stabilization by measuring increase in melting temperature at 25 uM measured for 120 mins by differential scanning fluorimetry

Compound	IC50 [1]	Ki [1]	IC50 [2]	Ki [2]	inhibition [6]	Kd [9]	Kd [11]	IC50 ([4]; read-out: IC50)	inhibition [15]	IC50 (cells)	IC50 ([5]; read-out: IC50)	Kd [18]	inhibition [19]	Activity [21]	Ratio IC50 [8]	Ratio IC50 [12]	Activity (PC-3 [14])	Activity (CWR22R [16])	Activity (CWR22R [20])	further results
COc1ccccc1C(=O)Nc1cc2c(cc1N1CCCCC1)n(C)c(=O)n2C	–	–	–	–	–	–	–	–	–	–	–	–	–	–	–	–	–	–	–	Activity (Homo sapiens [3]): Active; IC50 ([4]; hek293t): Not Active; IC50 ([5]; hek293t): Not Active
COc1ccc(-c2ccc3c(C)cc(=O)n(C)c3c2)c(OC)n1	5.4 µM	1300 nM	> 300000 nM	> 20000 nM	inactive	340 nM	2200 nM	3.2 µM	Active	> 10000 nM	1100 nM	655 nM	inactive	inactive	3	3	Active	41%	73%	Activity (CWR22R [7]): 38%; Activity (CWR22R [10]): 22%; Activity (CWR22R [13]): 28%; Activity (CWR22R [17]): 13%; Activity (PC-3 [22]): inactive; Activity (LNCaP): Active
COc1ccc(-c2ccc3c(C)cc(=O)n(C)c3c2)c(C)n1	1.6 µM	170 nM	2700 nM	230 nM	inactive	290 nM	1200 nM	3.3 µM	Active	2800 nM	850 nM	650 nM	inactive	inactive	3	3	Active	26%	52%	Activity (Homo sapiens [23]): Active
CCn1cc(-c2cccc(C(F)(F)F)c2)c2sc(C(=N)NC3CCS(=O)(=O)CC3)cc2c1=O	–	–	–	–	Active	–	–	–	–	–	–	–	–	–	–	–	–	–	–	–

More lines, main results first:

IC50 [1]	Ki [1]	IC50 [2]	Ki [2]	inhibition [6]	Kd [9]	Kd [11]	IC50 ([4]; read-out: IC50)	inhibition [15]	IC50 (cells)	IC50 ([5]; read-out: IC50)	Kd [18]	inhibition [19]	Activity [21]	Compound	Ratio IC50 [8]	Ratio IC50 [12]	Activity (PC-3 [14])	Activity (CWR22R [16])	Activity (CWR22R [20])	further results
8.1 µM	860 nM	4000 nM	340 nM	–	–	–	–	–	–	–	–	–	–	Cc1cc(C)cc(-c2cn(C)c(=O)c3ccccc23)c1	–	–	–	–	–	–
2.9 µM	310 nM	1500 nM	130 nM	–	–	–	–	–	–	–	–	–	–	COc1ccc(-c2cn(C)c(=O)c3ccccc23)c(OC)n1	–	–	–	–	–	–
